Assay results reported in US7534793B2, “Aminopiperidine quinolines and their azaisosteric analogues with antibacterial activity” (priority 2003, dated 2009).
Structures can show the parent of a compound that is named as a salt.

Assay: MIC of test compounds against various organisms
Type: cell-based
Conditions: not given

Row | Structure (SMILES) | MIC [µg/mL]
1 | COc1ccc2nccc([C@@H](O)CN3CCC(NCc4cc5cccc(O)c5c(=O)[nH]4)CC3)c2c1 [Example 622, (R)-2-{4-[(8-Hydroxy-1-oxo-1,2-dihydro-isoquinolin-3-ylmethyl)-amino]-piperidin-1-yl}-1-(6-methoxyquinolin-4-yl)-ethanol trihydrochloride] | ≤ 0.125
2 | COc1ccc2nccc([C@@H](O)CN3CCC(NCc4cc5cccnc5n4CC(=O)O)CC3)c2c1 [Example 624, (R)-1-(6-Methoxy-quinolin-4-yl)-2-{4-[(1-carboxymethyl-1H-pyrrolo[2,3-b]pyridine-2-ylmethyl)-amino]-piperidin-1-yl}-ethanol trihydrochloride] | ≤ 32
3 | COc1ccc2nccc([C@@H](O)CN3CCC(N(CC(=O)O)Cc4cc5cccnc5n4CC(=O)O)CC3)c2c1 [Example 625, (R)-1-(6-Methoxy-quinolin-4-yl)-2-{4-[carboxymethyl-(1-carboxymethyl-1H-pyrrolo[2,3-b]pyridine-2-ylmethyl)-amino]-piperidin-1-yl}-ethanol dihydrochloride] | ≤ 32

Same assay, conditions: against one or more of the above range of gram positive and gram negative bacteria; read-out: MIC

Row | Structure (SMILES) | MIC [µg/mL]
4 | COc1ccc2nccc(NC(=O)N3CCC(NCc4cc5ccccc5[nH]4)CC3)c2c1 [Example 406, 4-[(1H-Indol-2-ylmethyl)-amino]-piperidine-1-carboxylic acid (6-methoxy-quinolin-4-yl)amide, oxalate] | ≤ 2
5 | COc1cc(F)c2nccc(NC(=O)N3CCC(NCc4cnc5c(O)cccc5n4)CC3)c2c1F [Example 620, 4-[(5-Hydroxy-quinoxalin-2-ylmethyl)amino]-piperidine-1-carboxylic acid (5,8-difluoro-6-methoxy-quinolin-4-yl)-amide oxalate] | ≤ 32
6 | COc1ccc2nccc(NC(=O)N3CCC(NCc4nc5c(F)cc(F)cc5[nH]4)CC3)c2n1 [Example 403, 4-[(4,6-Difluoro-1H-benzimidazol-2-ylmethyl)-amino]-piperidine-1-carboxylic acid (6-methoxy-[1,5]naphthyridin-4-yl)-amide, oxalate] | ≤ 2
7 | COc1ccc2nccc([C@@H](O)CN3CCC(NCc4nc5cc(F)c(F)cc5[nH]4)CC3)c2c1.O=C(O)C(=O)O.O=C(O)C(=O)O [Example 14, (R)-2-{4-[(5,6-Difluoro-1H-benzimidazol-2-ylmethyl)-amino]-piperidin-1-yl}-1-(6-methoxyquinolin-4-yl)-ethanol, dioxalate] | ≤ 2
8 | COc1ccc2nccc([C@@H](O)CN3CCC(NCc4cnc5scnc5c4)CC3)c2c1 [Example 623, (R)-1-(6-Methoxy-quinolin-4-yl)-2-{4-[(thiazolo[5,4-b]pyridin-6-ylmethyl)amino]-piperidin-1-yl}-ethanol dioxalate] | ≤ 2
9 | COc1ccc2nc(CNC3CCN(C[C@H](O)c4ccnc5ccc(OC)cc45)CC3)sc2c1 [Example 11, (R)-2-{4-[(6-Methoxy-benzothiazol-2-ylmethyl)-amino]-piperidin-1-yl}-1-(6-methoxy-quinolin-4-yl)-ethanol, dioxalate] | ≤ 32
10 | COc1ccc2nccc([C@@H](O)CN3CCC(NCc4cc5cc(Br)ccc5[nH]4)CC3)c2c1 [Example 9, (R)-2-{4-[(5-Bromo-1 H-indol-2-ylmethyl)amino]-piperidin-1-yl}-1-(6-methoxy-quinolin-4-yl)-ethanol, dioxalate] | ≤ 32
